From article PMC12505902, “Inhibitors of trehalose-6-phosphate synthase activity in fungal pathogens compromise thermal tolerance pathways” (mBio, 2025)

Test system: C. neoformans WT H99
Assay: C. neoformans capsule assay (India Ink)
Assay type: cell-based
Conditions: 0.1, 0.5 and 1 mM 4456dh, 72 hours at 30°C, dose-dependent
Procedure: Fig 5 4456dh treatment results in reduced trehalose accumulation and a decrease in Tps1-dependent virulence factors. Trehalose accumulation measurements for C. albicans (A) and C. neoformans (B) cultured at indicated temperatures in the absence or presence of 0.5 mM 4456dh. Trehalose was measured using a colorimetric glucose assay after treatment of cultures with trehalase. Statistical comparisons were done with a one-way analysis of variance (ANOVA) analysis followed by a post hoc Tukey’s test. Error bars represent SE. (C) C. albicans WT strain SC5314 cells were treated with 0.5 mM, 1.0 mM, and 5 mM 4456dh. Untreated C. albicans WT cells and the C. albicans tps1Δ/tps1Δ deletion strain were included in this experiment as positive and negative controls, respectively. Increasing concentrations of 4456dh negatively affect filamentation in C. albicans in YPD plus 10% fetal bovine serum incubated at 37°C for 2 hours. Representative images from two independent experiments are shown. The scale bars represent 10 microns. (D) Analysis of capsule formation in C. neoformans WT H99 using India Ink counter-staining in cells treated with 0.1 mM, 0.5 mM, and 1 mM 4456dh. […] Cells were harvested, stained in India Ink, and analyzed using differential interference contrast imaging. […]
190 (Zeiss). The size of the capsule of > 100 cells per 4456dh treatment was quantified using Image […]

## Cn1cc(-c2csc(NC(=O)Cc3ccccn3)n2)cn1 [Compound 4456dh]
  capsule production: capsule production was affected
